Source: PMC10051656, “Phenylpyrazolone-1,2,3-triazole Hybrids as Potent Antiviral Agents with Promising SARS-CoV-2 Main Protease Inhibition Potential” (Pharmaceuticals, 2023)
Where “and” joins values, the source holds several entries; their conditions need not be identical. Equal values may be shown once. Read-outs that look alike come from different tables or passages of the source.

How the values were obtained:
[1] = target: SARS-CoV-2 Main protease (Severe acute respiratory syndrome coronavirus 2, UniProt P0DTD1); assay: biochemical
[2] = test system: SARS-CoV-2; assay: microbe, parasite or virus in culture; assay type: cell-based; conditions: for API Value: ratio of 10 μM inhibition % of tested drug to the reference remdesivir
[3] = MTT cell viability / cytotoxicity in Vero E6 cells; set-up: cytotoxicity to Vero E6 cells: dose or concentration left out as unconfirmed; conditions: African green monkey
[4] = test system: Vero E6 cells; assay: MTT cell viability / cytotoxicity in Vero E6 cells; set-up: cytotoxicity to Vero E6 cells: dose or concentration left out as unconfirmed; conditions: for IC50: read-out: Cytotoxicity (Vero E6) (IC50), Vero E6 cells, MTT test
[5] = test system: SARS-CoV Main protease; conditions: cited from earlier work
[6] = test system: Main protease of MERS-CoV; conditions: cited from earlier work
[7] = triplicate readings with SE, read-out: IC50 (μM) ± SE
[8] = Severe acute respiratory syndrome coronavirus 2, Vero C1008, 1 μM, infected Vero E6 cells, MOI 0.01, read-out: Anti-SARS-CoV-2 Effect Assay (%) 1 μM
[9] = Severe acute respiratory syndrome coronavirus 2, Vero C1008, 10 μM, infected Vero E6 cells, MOI 0.01, read-out: Anti-SARS-CoV-2 Effect Assay (%) 10 μM
[10] = Cytotoxicity (Vero E6) (IC50, μM), Vero E6 cells, MTT test

SMILES | IC50 [1, 7] | inhibition at 1 µM [2, 8] [%] | inhibition at 10 µM [2, 9] [%] | API Value [2] | IC50 [3, 10] [µM] | also measured
CC1=NN(c2ccc(Cl)cc2)C(=O)/C1=C\c1ccc(OCc2cn(-c3ccc(C(=O)O)cc3)nn2)cc1 [6a] | 76 µM and 76.9 µM | 10.8 ± 0.06 | 19.3 | 0.21 | 17.1 ± 13 | Anti-SARS-CoV-2 Effect Assay (%) 10 μM ([2]; 10 μM, infected Vero E6 cells, MOI 0.01): 19.27 ± 0.51%
CC1=NN(c2ccccc2)C(=O)/C1=C\c1ccc(OCc2cn(-c3ccc(C(=O)O)cc3)nn2)cc1 [6b] | > 200 µM |  |  |  |  | melting point: 205 to 206 °C
CC(=O)c1ccc(-n2cc(COc3ccc(/C=C4\C(=O)N(c5ccc(Cl)cc5)N=C4C)cc3)nn2)cc1 [6c] | 81.1 ± 3.9 µM | 4.46 ± 0.034 | 24.5 ± 0.37 | 0.26 | 92.1 ± 7 | 
CC1=NN(c2ccc(Cl)cc2)C(=O)/C1=C\c1ccc(OCc2cn(-c3ccc(F)cc3)nn2)cc1 [6d] | 42.4 ± 3.8 µM | 7.38 ± 0.007 | 55.47 ± 0.27 | 0.60 | 172 ± 13 | 
CC1=NN(c2ccc(Cl)cc2)C(=O)/C1=C\c1ccc(OCc2cn(-c3ccc([N+](=O)[O-])cc3)nn2)cc1 [6e] | 30.1 ± 1.4 µM | 17.4 ± 0.19 | 49.5 ± 1.01 | 0.53 | 66.4 ± 5.1 | 
CC1=NN(c2ccc(Cl)cc2)C(=O)/C1=C\c1ccc(OCc2cn(-c3ccc(Cl)cc3)nn2)cc1 [6f] | 144 ± 6.9 µM | 1.54 ± 0.089 | 30.2 ± 0.31 | 0.31 | 51.4 ± 3.9 | 
CC1=NN(c2ccc(Cl)cc2)C(=O)/C1=C\c1ccc(OCc2cn(-c3ccc(Cl)c(Cl)c3)nn2)cc1 [6g] | 200 ± 9.5 µM | 12.23 ± 0.05 | 38.74 ± 0.3 | 0.41 | 235 ± 18 | 
CC1=NN(c2ccc(Cl)cc2)C(=O)/C1=C\c1ccc(OCc2cn(-c3ccc(C)c(F)c3)nn2)cc1 [6h] | 5.08 ± 3.5 µM | 15.5 ± 0.003 | 64.2 | 0.66 | 33.7 ± 2.6 | 
CC1=NN(c2ccc(Cl)cc2)C(=O)/C1=C\c1ccc(OCc2cn(CC(=O)Nc3ccc(C(=O)O)cc3)nn2)cc1 [6i] | 3.17 µM and 7.55 µM and 3.1 µM and 3.16 µM | 21.86 ± 0.09 | 64 | 0.67 | 22.1 | IC50 [4]: 21.1 ± 1.6 µM
CC1=NN(c2ccc(Cl)cc2)C(=O)/C1=C\c1ccc(OCc2cn(CC(=O)Nc3ccc(F)cc3)nn2)cc1 [6j, (Z)-2-(4-((4-((1-(4-Chlorophenyl)-3-methyl-5-oxo-1H-pyrazol-4(5H)-ylidene)methyl)phenoxy)methyl)-1H-1,2,3-triazol-1-yl)-N-(4-fluorophenyl)acetamide] | 49.4 ± 2.4 µM | 16.16 ± 0.03 | 39.65 ± 0.25 | 0.46 | 156 ± 12 | 
CC1=NN(c2ccccc2)C(=O)/C1=C\c1ccc(OCc2cn(CC(=O)Nc3ccc(F)cc3)nn2)cc1 [6k, (Z)-N-(4-Fluorophenyl)-2-(4-((4-((3-methyl-5-oxo-1-phenyl-1H-pyrazol-4(5H)-ylidene)methyl)phenoxy)methyl)-1H-1,2,3-triazol-1-yl)acetamide] | > 200 µM |  |  |  |  | IC50 ([1]; unit inferred, read-out: IC50 (numbers printed in the chart of Figure 5)): 200 µM; melting point: 201 to 203 °C
CC1=NN(c2ccc(Cl)cc2)C(=O)/C1=C\c1ccc(OCc2cn(CC(=O)Nc3ccc([N+](=O)[O-])cc3)nn2)cc1 [6l, (Z)-2-(4-((4-((1-(4-Chlorophenyl)-3-methyl-5-oxo-1H-pyrazol-4(5H)-ylidene)methyl)phenoxy)methyl)-1H-1,2,3-triazol-1-yl)-N-(4-nitrophenyl)acetamide] | 135 ± 6.5 µM | 8.84 ± 0.11 | 46.91 ± 0.28 |  | 32.6 ± 2.5 | 
CC1=NN(c2ccc(Cl)cc2)C(=O)/C1=C\c1ccc(OCc2cn(CC(=O)Nc3ccc(C)c(F)c3)nn2)cc1 [6m, (Z)-2-(4-((4-((1-(4-Chlorophenyl)-3-methyl-5-oxo-1H-pyrazol-4(5H)-ylidene)methyl)phenoxy)methyl)-1H-1,2,3-triazol-1-yl)-N-(3-fluoro-4-methylphenyl)acetamide] | 25.7 ± 0.4 µM | 9.55 ± 0.02 | ~50 | 0.49 | 189 ± 14 | 
CC1=NN(c2ccc(Cl)cc2)C(=O)/C1=C\c1ccc(OCc2cn(CC(=O)NCc3ccc(Cl)cc3)nn2)cc1 [6n, (Z)-N-(4-Chlorobenzyl)-2-(4-((4-((1-(4-chlorophenyl)-3-methyl-5-oxo-1H-pyrazol-4(5H)-ylidene)methyl)phenoxy)methyl)-1H-1,2,3-triazol-1-yl)acetamide] | 86.6 ± 4.1 µM | 3.73 ± 0.01 | 51.13 ± 0.14 | 0.55 | 23.1 ± 1.8 | 
CC1=NN(c2ccc(Cl)cc2)C(=O)/C1=C\c1ccc(OCc2cn(CC(=O)NCc3ccc(C)cc3)nn2)cc1 [6o, (Z)-2-(4-((4-((1-(4-Chlorophenyl)-3-methyl-5-oxo-1H-pyrazol-4(5H)-ylidene)methyl)phenoxy)methyl)-1H-1,2,3-triazol-1-yl)-N-(4-methylbenzyl)acetamide] | 43.3 ± 2.1 µM | 12.23 ± 0.1 | 54.1 ± 0.61 | 0.56 | 262 ± 20 | 
COc1ccc(CNC(=O)Cn2cc(COc3ccc(/C=C4\C(=O)N(c5ccc(Cl)cc5)N=C4C)cc3)nn2)cc1 [6p, (Z)-2-(4-((4-((1-(4-Chlorophenyl)-3-methyl-5-oxo-1H-pyrazol-4(5H)-ylidene)methyl)phenoxy)methyl)-1H-1,2,3-triazol-1-yl)-N-(4-methoxybenzyl)acetamide] | 23.7 ± 1.1 µM | 9.5 ± 0.11 | ~50 | 0.54 | 20.1 ± 1.5 | 
CC1=NN(c2ccc(Cl)cc2)C(=O)/C1=C\c1ccc(OCc2cn(CC(=O)NCc3ccc(F)cc3)nn2)cc1 [6q, (Z)-2-(4-((4-((1-(4-Chlorophenyl)-3-methyl-5-oxo-1H-pyrazol-4(5H)-ylidene)methyl)phenoxy)methyl)-1H-1,2,3-triazol-1-yl)-N-(4-fluorobenzyl)acetamide] | 3.16 µM and 7.55 µM | 12.9 ± 0.03 | 79 | 0.84 | > 20 | IC50 [4]: 35.3 ± 2.7 µM
CC(C)CC(NC(=O)OCc1ccccc1)C(=O)NC(CC1CCNC1=O)C(O)S(=O)(=O)O (centres unmarked) [GC-376, reference compound] |  | 78.96 ± 0.67 | 92.9 ± 1.15 | 0.99 | 41.2 ± 1.1 | 
CCC(CC)COC(=O)[C@H](C)N[P@](=O)(OC[C@H]1O[C@@](C#N)(c2ccc3c(N)ncnn23)[C@H](O)[C@@H]1O)Oc1ccccc1 [REM, remdesivir, reference compound] |  |  |  | 1.0 |  | inhibition at 1 µM ([2]; Severe acute respiratory syndrome coronavirus 2, Vero C1008, read-out: Anti-SARS-CoV-2 Effect Assay (%) 1 μM): 89.6 ± 0.98%; inhibition at 10 µM ([2]; Severe acute respiratory syndrome coronavirus 2, Vero C1008, read-out: Anti-SARS-CoV-2 Effect Assay (%) 10 μM): 93.3 ± 1.17%; IC50 [3]: 61.8 ± 4.7 µM; cytotoxicity to Vero E6 cells ([4]; positive control): no cytotoxicity
N#Cc1ccc(N2N=C(c3ccccc3)/C(=C/c3ccc(C(=O)O)cc3)C2=O)cc1 [compound 7] |  |  |  |  |  | IC50 [5]: 5.5 µM
O=C(O)c1ccc(/C=C2\C(=O)N(c3ccc(F)cc3)N=C2c2ccccc2)cc1 [compound 8] |  |  |  |  |  | IC50 [5]: 6.8 µM
O=C(O)c1cccc(N2N=C(c3ccccc3)/C(=C/c3ccc(-c4ccccc4)o3)C2=O)c1 [compound 9] |  |  |  |  |  | IC50 [5]: 6.4 µM; IC50 [6]: 5.8 µM
CC(C)(C)c1ccc(N2N=C(c3ccccc3)/C(=C/c3ccc(-c4cc(Cl)ccc4C(=O)O)o3)C2=O)cc1 [compound 10] |  |  |  |  |  | IC50 [5]: 5.8 µM; IC50 [6]: 7.4 µM
Cc1cccc(C)c1OCC(=O)N[C@@H](Cc1ccccc1)[C@@H](O)C[C@H](Cc1ccccc1)NC(=O)[C@H](C(C)C)N1CCCNC1=O [lopinavir, reference compound] | 82.2 µM |  |  |  |  | 
